Consider one compound from patent US11046647B2, “Activators of the unfolded protein response” (The Board of Trustees of the University of Illinois, priority 2018, dated 2021).

In series [1] the test system is panel of cancer cell lines. Briefly: Alamar blue 24-hour IC50 against a panel of cancer cell lines. The series is classed as cell-based. As to conditions: Homo sapiens, average. The protocol:
FIG. 36. Discovery of SERK-F6 (also known as, C(−)-105, (−)-105, (R)-105, (−)-1, or (R)-1), a compound that kills ERα-positive cancer cells, a, Chemical structures of BHPI and racemic compound 1 (i.e. (±)-1), and their cytotoxic activity on T47D breast cancer cells after 24-hour incubations with concentrations as indicated in nM. Cells were stained with annexin V-FITC and PI dyes prior to analysis via flow cytometry. […] Cells were incubated with SERK-F6 or positive control, Raptinal, for 24 hours and then stained with annexin V-FITC and PI dyes and analyzed via flow cytometry. […] Cell viability was measured by Alamar blue fluorescence and set relative to a vehicle control and a quantitative dead control treated with Raptinal. […] Cell number was determined by MTS.
FIG. 40. […] Concentration was determined via LC/MS/MS analysis. […] Concentrations were determined via LC/MS/MS analysis. […]
Cell lines: ERα positive breast cancer: T47D, MCF-7 TYS (T47D Y537S) TDG (T47D D538G), BT-474; ERα negative MDA-MB-231 breast cancer cells; 6,000 cells/well were plated (96 well plate) in 100 μl of medium. […] After 2-4 hours fluorescence in the wells was read (λex: 555 nm, λem: 585 nm, Spectra Max M3 Plate reader). % relative death was determined by setting the reading for 10,000 nM raptinal-treated cells to 100% dead cells and the reading for vehicle-treated cells to 0% dead cells. […]
(The colour change of resazurin is a common sign of viable cells or microbes.)

Series [2] deals with TYD-Luc cells (T47DERαD538G-luciferase human breast cancer cells) tumors. Briefly: Orthotopic TDG-Luc mouse xenograft, bioluminescent imaging. The series is classed as in vivo. From the text: (§1) FIG. 41. SERK-F6 eradicates mutant ERα primary and metastatic breast cancer. a-c, TYS-luc. orthotopic tumors were established in NSG ovariectomized mice (no E2 pellet, 60 days to establish) and dosed daily as indicated (n=5-6). b, representative examples of bioluminescence images of SERK-F6 treated mice (7 days). d,e, TDG-luc. orthotopic tumors were established in NSG ovariectomized mice (no E2 pellet, 120 days to establish) and dosed daily as indicated (n=4-5). e, Bioluminescence image of SERK-F6 treated mouse with TDG-luc. tumor burden after 7 days. f, MYS-luc. orthotopic tumors were established in NSG ovariectomized mice (no E2 pellet, 45 days to establish) and dosed daily as indicated (n=4-5). g, MDG-luc. orthotopic tumors were established in NSG ovariectomized mice (no E2 pellet, 45 days to establish) and dosed daily as indicated (n=4-5). h, Metastatic model with MDG-luc. cells injected into the tail-vein of NSG ovariectomized mice (no E2 pellet, 1.5 months to establish) and mice were dosed daily as indicated (n=4-5).
FIG. 4A illustrates how IC50's for cell death were determined. 4B tests the ability BHPI, (−)-105, and 01-15 to kill. […] Large orthotopic breast tumors of TYD-Luc cells (T47DERαD538G-luciferase human breast cancer cells) were allowed to form for 4 months in immune suppressed NSG mice. […]

In another series the test system is MDA-MB-231. In kind it is cell-based. Here is the method: (§2) FIG. 36. Discovery of SERK-F6 (also known as, C(−)-105, (−)-105, (R)-105, (−)-1, or (R)-1), a compound that kills ERα-positive cancer cells, a, Chemical structures of BHPI and racemic compound 1 (i.e. (±)-1), and their cytotoxic activity on T47D breast cancer cells after 24-hour incubations with concentrations as indicated in nM. Cells were stained with annexin V-FITC and PI dyes prior to analysis via flow cytometry. […] Cells were incubated with SERK-F6 or positive control, Raptinal, for 24 hours and then stained with annexin V-FITC and PI dyes and analyzed via flow cytometry. Error bars represent S.E.M of 3 independent replicates. c, IC50 values of SERK-F6 after 24-hour incubation against a panel of cancer cell lines grouped by their reported ERα status. Cell viability was measured by Alamar blue fluorescence and set relative to a vehicle control and a quantitative dead control treated with Raptinal. Error bars represent S.E.M of 3 independent experiments. d, Crystal violet staining of T47D cells after 24-hour incubations with compounds and concentrations as indicated. Image is representative of 2 independent experiments. e,f, Long-term cell culture experiment with T47D, TDG, and TYS cells. Cells were incubated for 2 weeks with compounds (1 μM), followed by compound washout, and cells were cultured for 2 months. Cell number was determined by MTS. […]

In the next series the test system is MCF-7. In kind it is cell-based. Here is the method:
as §2

A further series has as its system MDG-luc. cells. Kind of series: Metastatic model, MDG-luc cells injected into the tail-vein. The series is classed as in vivo, mouse. Particulars: daily dosing.
Description: as §1

Usually IC50 stands for the concentration needed to halve the response being measured. A higher IC50 goes with weaker potency. `O=C1Nc2c(C(F)(F)F)cccc2C1(c1ccc(O)cc1)c1ccc(OC(F)(F)F)cc1` (single isomer, unassigned; (-)) [(−)-105, 3-(4-hydroxyphenyl)-3-(4-(trifluoromethoxy)phenyl)-7-(trifluoromethyl)indolin-2-one] registered an IC50 in series [1] of 42 nM. Moreover, in series [2] (40 mg/kg oral gavage, 3 days), the “efficacy on oral administration” value is listed as “effective when administered orally”. Moreover, in series [2] (daily dosing), the “effect on D538G mutant tumors (TDG cell line)” value is listed as “destruction of D538G mutant tumors”. Besides, the cytotoxicity entry is listed as “minimal effects” in the series on MDA-MB-231 and “cytotoxic” in the series with MCF-7. In the series with MDG-luc. cells, the metastatic tumor burden entry is “eradicates metastatic tumor burden”.
